Earlier results on one molecule are cited in US20100322961A1, “Intranasal Drug Delivery System” (priority 2007, published 2010).

The conditions of this data set: pure substance; background statement.

`COc1cc(CNC(=O)CCCC/C=C/C(C)C)ccc1O` [capsaicin]: the “pungency (Scoville heat units)” value is recorded as 15,000,000-16,000,000 Scoville units.
